Reference: PubChem BioAssay AID1259411 (Chemical Carcinogenesis Research Information System (CCRIS), 2018)
The source made the active and inactive calls. How the calls were made is not given here.

Tested on: rodent carcinogenicity bioassays, tumor incidence
Experiment: CCRIS carcinogenicity studies
Method in brief: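 Archive of carcinogenicity, mutagenicity, tumor promotion and tumor inhibition results drawn from journals, NCI reports and other sources, expert-reviewed; covers 1985-2011 and is no longer updated.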

## COc1ccccc1N
Species: MOUSE, Strain/Sex: B6C3F1/FEMALE, Route: ORAL, Dose: 0, 2500, 5000 PPM IN DIET FOR 103 WK (STUDY DURATION: 105 WK), Dose: 0, 2500, 5000 PPM IN DIET FOR 103 WK (STUDY DURATION: 105 WK), Tumor Site: Type of Lesion: URINARY BLADDER: TRANSITIONAL CELL CARCINOMA, TRANSITIONAL CELL PAPILLOMA OR CARCINOMA
  carcinogen call: active; positive
Species: MOUSE, Strain/Sex: B6C3F1/MALE, Route: ORAL, Dose: 0, 2500, 5000 PPM IN DIET FOR 103 WK (STUDY DURATION: 104-105 WK), Dose: 0, 2500, 5000 PPM IN DIET FOR 103 WK (STUDY DURATION: 104-105 WK), Tumor Site: Type of Lesion: URINARY BLADDER: TRANSITIONAL CELL CARCINOMA, TRANSITIONAL CELL PAPILLOMA OR CARCINOMA
  carcinogen call: active; positive
Species: RAT, Strain/Sex: F344/FEMALE, Route: ORAL, Dose: 0, 5000, 10000 PPM IN DIET FOR 83-103 WK (STUDY DURATION: 83-107 WK), Dose: 0, 5000, 10000 PPM IN DIET FOR 83-103 WK (STUDY DURATION: 83-107 WK), Tumor Site: Type of Lesion: URINARY BLADDER: TRANSITIONAL CELL CARCINOMA, TRANSITIONAL CELL PAPILLOMA OR CARCINOMA
  carcinogen call: active; positive
Species: RAT, Strain/Sex: F344/MALE, Route: ORAL, Dose: 0, 5000, 10000 PPM IN DIET FOR 88-103 WK (STUDY DURATION: 88-106 WK), Dose: 0, 5000, 10000 PPM IN DIET FOR 88-103 WK (STUDY DURATION: 88-106 WK), Tumor Site: Type of Lesion: KIDNEY OR KIDNEY (PELVIS): TRANSITIONAL CELL CARCINOMA, URINARY BLADDER: TRANSITIONAL CELL CARCINOMA, TRANSITIONAL CELL
  carcinogen call: active; positive

## O=C1[C@H]2CC=CC[C@H]2C(=O)N1SC(Cl)(Cl)Cl
Species: MOUSE, Strain/Sex: B6C3F1/MALE, Route: ORAL, Dose: 0, 8000, 16000 PPM IN DIET, Dose: 0, 8000, 16000 PPM IN DIET, Tumor Site: Type of Lesion: DUODENUM: ADENOMATOUS POLYP (NOS) OR ADENOCARCINOMA IN ADENOMATOUS POLYP
  carcinogen call: active; positive
Species: MOUSE, Strain/Sex: SWISS/FEMALE, Route: DERMAL, Dose: 0, 450 UG IN 200 µL DMSO 3/WK FOR 52 WK (STUDY DURATION: 52 WK)
  carcinogen call: inactive; negative
Species: Mouse, Strain/Sex: Swiss CD-1/Female (80/dose), Route: Oral, Dose: 0, 2000/6000, 6000/10,000, 10,000/16,000 ppm in diet for 113 wk (lower dose first 4 wk, higher dose for remainder of stu, Dose: 0, 2000/6000, 6000/10,000, 10,000/16,000 ppm in diet for 113 wk (lower dose first 4 wk, higher dose for remainder of stu
  carcinogen call: inactive; negative (purity of 90.7%; study details not given in source)
Species: Mouse, Strain/Sex: Swiss CD-1/Male (80/dose), Route: Oral, Dose: 0, 2000/6000, 6000/10,000, 10,000/16,000 ppm in diet for 113 wk (lower dose first 4 wk, higher dose for remainder of stu, Dose: 0, 2000/6000, 6000/10,000, 10,000/16,000 ppm in diet for 113 wk (lower dose first 4 wk, higher dose for remainder of stu, Tumor Site: Type of Lesion: INTESTINE: Adenomas and adenocarcinomas in jejunum
  carcinogen call: active; positive (10,000 ppm group) (purity of 90.7%; study details n ot given in source
Species: RAT, Strain/Sex: OSBORNE-MENDEL/FEMALE, Route: ORAL, Dose: 0, 2525, 6060 PPM IN DIET, TWA, Dose: 0, 2525, 6060 PPM IN DIET, TWA
  carcinogen call: inactive; negative
Species: RAT, Strain/Sex: OSBORNE-MENDEL/MALE, Route: ORAL, Dose: 0, 2525, 6060 PPM IN DIET, TWA, Dose: 0, 2525, 6060 PPM IN DIET, TWA
  carcinogen call: inactive; negative
Species: Rat, Strain/Sex: CD/Female (50/group), Route: Oral, Dose: 0, 25, 100, 250 mg/kg/day in diet for 2 yr, Dose: 0, 25, 100, 250 mg/kg/day in diet for 2 yr
  carcinogen call: inactive; negative (purity of 89%; study details not given in source)
Species: Rat, Strain/Sex: CD/Male (50/group), Route: Oral, Dose: 0, 25, 100, 250 mg/kg/day in diet for 2 yr, Dose: 0, 25, 100, 250 mg/kg/day in diet for 2 yr, Tumor Site: Type of Lesion: KIDNEY: Renal tubular adenomas or carcinomas (1, 1, 3, 4)
  carcinogen call: active; positive (purity of 89%; study details not given in source)

## C#C[C@]1(O)CC[C@H]2[C@@H]3CCC4=CC(=O)CC[C@@H]4[C@H]3CC[C@@]21C
Species: MOUSE, Route: ORAL, Tumor Site: Type of Lesion: LIVER, LUNG
  carcinogen call: active; positive

## Nc1ccccc1N
Species: MOUSE, Route: ORAL, Tumor Site: Type of Lesion: LIVER
  carcinogen call: active; positive
Species: RAT, Route: ORAL, Tumor Site: Type of Lesion: LIVER
  carcinogen call: active; positive

## Cc1ccc(/C(=C\CN2CCCC2)c2ccccn2)cc1
Species: MOUSE, Strain/Sex: B6C3F1/FEMALE, Route: ORAL, Dose: 0, 500, 2000, 4000 PPM IN DIET FOR 2 YR (STUDY DURATION: 2 YR), Dose: 0, 500, 2000, 4000 PPM IN DIET FOR 2 YR (STUDY DURATION: 2 YR)
  carcinogen call: inactive; negative
Species: MOUSE, Strain/Sex: B6C3F1/MALE, Route: ORAL, Dose: 0, 500, 2000, 4000 PPM IN DIET FOR 2 YR (STUDY DURATION: 2 YR), Dose: 0, 500, 2000, 4000 PPM IN DIET FOR 2 YR (STUDY DURATION: 2 YR)
  carcinogen call: inactive; negative
Species: RAT, Strain/Sex: F344/FEMALE, Route: ORAL, Dose: 0, 250, 1000, 2000 PPM IN DIET FOR 103 WK (STUDY DURATION: 104 WK), Dose: 0, 250, 1000, 2000 PPM IN DIET FOR 103 WK (STUDY DURATION: 104 WK)
  carcinogen call: inactive; negative
Species: RAT, Strain/Sex: F344/MALE, Route: ORAL, Dose: 0, 250, 1000, 2000 PPM IN DIET FOR 103 WK (STUDY DURATION: 104 WK), Dose: 0, 250, 1000, 2000 PPM IN DIET FOR 103 WK (STUDY DURATION: 104 WK)
  carcinogen call: inactive; negative

## NNC(N)=S
Species: MOUSE, Strain/Sex: SWISS/FEMALE, Route: ORAL, Dose: 0, 156, 312 PPM IN DRINKING WATER DAILY FOR LIFE (STUDY DURATION: 130-140 WK), Dose: 0, 156, 312 PPM IN DRINKING WATER DAILY FOR LIFE (STUDY DURATION: 130-140 WK)
  carcinogen call: inactive; negative
Species: MOUSE, Strain/Sex: SWISS/MALE, Route: ORAL, Dose: 0, 156, 312 PPM IN DRINKING WATER DAILY FOR LIFE (STUDY DURATION: 130-140 WK), Dose: 0, 156, 312 PPM IN DRINKING WATER DAILY FOR LIFE (STUDY DURATION: 130-140 WK)
  carcinogen call: inactive; negative

## CC(C)(c1ccc(OCC2CO2)cc1)c1ccc(OCC2CO2)cc1 (configuration not stated)
Species: MOUSE, Strain/Sex: CF1/FEMALE, Route: DERMAL, Dose: 0, 1, 10% IN ACETONE 2D/WK FOR 2 YR (STUDY DURATION: 2 YR), Dose: 0, 1, 10% IN ACETONE 2D/WK FOR 2 YR (STUDY DURATION: 2 YR)
  carcinogen call: inactive; negative
Species: MOUSE, Strain/Sex: CF1/MALE, Route: DERMAL, Dose: 0, 1, 10% IN ACETONE 2D/WK FOR 2 YR (STUDY DURATION: 2 YR), Dose: 0, 1, 10% IN ACETONE 2D/WK FOR 2 YR (STUDY DURATION: 2 YR)
  carcinogen call: inactive; negative
Species: MOUSE, Strain/Sex: CF-1/FEMALE, Route: DERMAL, Dose: 0, 1, 10% IN ACETONE (TOTAL DOSE 0.2 ML) 2/WK APPLIED TO DORSAL SKIN FOR DURATION OF STUDY (STUDY DURATION: 2 YR), Dose: 0, 1, 10% IN ACETONE (TOTAL DOSE 0.2 ML) 2/WK APPLIED TO DORSAL SKIN FOR DURATION OF STUDY (STUDY DURATION: 2 YR)
  carcinogen call: inactive; negative
Species: MOUSE, Strain/Sex: CF-1/MALE, Route: DERMAL, Dose: 0, 1, 10% IN ACETONE (TOTAL DOSE 0.2 ML) 2/WK APPLIED TO DORSAL SKIN FOR DURATION OF STUDY (STUDY DURATION: 2 YR), Dose: 0, 1, 10% IN ACETONE (TOTAL DOSE 0.2 ML) 2/WK APPLIED TO DORSAL SKIN FOR DURATION OF STUDY (STUDY DURATION: 2 YR)
  carcinogen call: inactive; negative

## CC=O
Species: RAT, Strain/Sex: WISTAR/FEMALE, Route: INHALATION, Dose: 0, 750, 1500, 3000 PPM 6 HR/D 5 D/WK AFTER 4 MO HIGH DOSE REDUCED TO 2150 PPM THEN 1500 PPM AT 6 MO AND 1000 PPM AT 12 M, Dose: 0, 750, 1500, 3000 PPM 6 HR/D 5 D/WK AFTER 4 MO HIGH DOSE REDUCED TO 2150 PPM THEN 1500 PPM AT 6 MO AND 1000 PPM AT 12 M, Tumor Site: Type of Lesion: NASAL CAVITY: TUMOR
  carcinogen call: active; positive
Species: RAT, Strain/Sex: WISTAR/MALE, Route: INHALATION, Dose: 0, 750, 1500, 3000 PPM 6 HR/D 5 D/WK AFTER 4 MO HIGH DOSE REDUCED TO 2150 PPM THEN 1500 PPM AT 6 MO AND 1000 PPM AT 12 M, Dose: 0, 750, 1500, 3000 PPM 6 HR/D 5 D/WK AFTER 4 MO HIGH DOSE REDUCED TO 2150 PPM THEN 1500 PPM AT 6 MO AND 1000 PPM AT 12 M, Tumor Site: Type of Lesion: NASAL CAVITY: TUMOR
  carcinogen call: active; positive
